For series [1], the system named is Drosophila larval NMJ. In words: Synaptic transmission at the Drosophila larval NMJ during H2O2-induced oxidative stress (EJP recording until synaptic failure). It is filed as cell-based, Drosophila melanogaster. Here is the method: (§1) This study used wild-type Canton-S Drosophila melanogaster third instar wandering larvae (~110 h old). All larvae were raised within an equal population density in 170 mL plastic culture bottles (~100 flies per bottle) containing 50 mL of Nutri-Fly Bloomington Formulation (Genessee Scientific, San Diego, CA, USA) fly food in an incubator at 25 °C under a 12 h:12 h light–dark light cycle.
(§2) Synaptic transmission was measured in Canton-S animals as previously described. Briefly, individual Canton-S third instar larvae were placed in a glass dissecting dish containing 2 mL of Schneider’s insect medium (Sigma, St. Louis, MO, USA) with the dorsal side up using standard insect pins. A longitudinal cut was made along the dorsal surface and the internal organs and central nervous system were removed to expose the underlying segmental muscles and nerves. An extracellular glass suction electrode was used to stimulate segmental nerves in muscle segments. The postsynaptic excitatory junction potential (EJP) was recorded from muscle 6 in abdominal segment A3 or A4 with a sharp intracellular glass recording electrode filled with 3 M KAc (~40 MΩ). The Schneider’s insect medium was replaced with 2 mL of hemolymph-like (HL-3) saline (1.5 mM CaCl2, 20 mM MgCl2, 5 mM KCl, 70 mM NaCl, 10 mM NaHCO3, 5 mM BES, 115 mM sucrose, 5 mM trehalose·2H2O) made fresh daily. EJP recordings were viewed with an oscilloscope and digitally stored using the Scope program (AD Instruments, Colorado Springs, CO, USA) for analysis. Evoked EJPs from repetitive stimulation (0.3 ms pulses delivered suprathreshold with a 1 Hz frequency) of both axons in larval muscle 6 were recorded in a stop-flow condition until synaptic transmission failure (amplitude < 1 mV).
(§3) The same electrophysiology preparation assay described above was performed; however, Canton-S larvae were also exposed to oxidative stress, Trolox, and PsA. Oxidative stress was induced in larval preparations by adding either 1 mM H2O2 or 75 µM NaN3 to the HL-3 saline (all chemicals obtained from Sigma, St. Louis, MO, USA). Larvae subjected to oxidative stress and simultaneous drug treatment included one of the following agents dissolved in DMSO: 5 µM Trolox or 1 µM PsA. A dose-response assay from 0.5 to 10 µM was performed to determine the effective concentration of PsA to prolong synaptic transmission at the Drosophila larval NMJ during oxidative stress exposure (Figure 3).
(§4) All synaptic function data were analyzed using SigmaPlot (Systat Software, San Jose, CA, USA) statistical analysis software. A one-way analysis of variance (ANOVA) test followed by a post hoc multiple comparisons procedure (Holm–Šidák) was used to compare significant differences across all treatment groups. Statistical significance (p < 0.05) was assigned using letter designations, where different letters show significant differences and the same letter assignments are not significant. The letter assignments begin with “A” representing the highest mean, “B” indicating the next highest, and so forth. All vertical bar charts are shown with the means ± SE.

Series [2] deals with Drosophila larval NMJ. In words: Synaptic transmission at the Drosophila larval NMJ during NaN3-induced oxidative stress (EJP recording until synaptic failure). The class given is cell-based, Drosophila melanogaster. As to conditions: for average time until synaptic failure: mean ± SE. As for the experimental part: as §1, §2, §3, §4
The nature of series [3]: Pharmacokinetics and tissue distribution of PsA in mice after IV bolus. The class given is in vivo, mouse. To be noted: for Kp / half-life: mouse, iv, 50 mg/kg; for AUC (AUClast): linear trapezoidal rule. Here is the method:
After spiking with 10 µL of 17β-estradiol (100 µg/mL), 100 µL plasma or […] of tissue homogenate (prepared as above) was mixed with 300 µL of acetonitrile and vortex-mixed for 15 s. The samples were then extracted with 0.6 mL of ethyl acetate. After centrifugation for 10 min at 2000× g, the upper organic layer was removed and evaporated to dryness under reduced pressure in a vacuum centrifuge. The residue obtained was reconstituted in 80 µL acetonitrile with ultrasonic treatment for 1 min and the derivatization was performed as follows.
The HPLC measurements were carried out using a Shimadzu LC-20AT liquid chromatography, which were coupled to a UV-SPD-M20A diode array detector. Data acquisition was performed using EZStart chromatography software package version 7.4. The chromatographic separation of NBD-Cl -derivative of PsA was achieved using Phenomenex Gemini 5 µm C18 110 Å column with a Phenomenex Security Guard C18 guard column (Torrance, CA, USA). The Mobile phase: A: 20 mM AcONH4 (pH = 7.4): ACN (2:1); B: CAN. Running program: 0–5 min, 80%–90% B; 5–7 min, 90% B; 7–12 min, 90%–100% B; 12–15 min, 100%–80% B. The mobile phase flow rate was 1.0 mL/min and the UV detection wavelength was set to 378 nm. Under the chromatographic conditions described, NBD-Cl derivatives of PsA and 17β-estradiol eluted at 7.3 and 5.5 min, respectively.
(Pharsight, Mountain View, CA, USA).

Details of series [4]: method as in PMID 22851883. As to conditions: cited from earlier work.
The subject of a further series is mice. In words: Tolerability in mice after 50 mg/kg intravenous injection.
[5] abbreviates: male, NIH Swiss, mouse brain, 50 mg/kg IV.
[6] abbreviates: male, NIH Swiss, mouse kidney, 50 mg/kg IV.
Setting [7] is: male, NIH Swiss, mouse liver, 50 mg/kg IV.
[8] abbreviates: male, NIH Swiss, mouse plasma, 50 mg/kg IV bolus, estimate ± standard error.

The structures appear in SMILES notation. Read-outs that look alike come from different tables or passages of the source. A value given as a limit tells only on which side of the number the result lay.

`OO` [H2O2, hydrogen peroxide]: the “average time until synaptic transmission failure” value in the series on Drosophila larval NMJ [1] (H2O2 1 mM alone, control 132 ± 3 min) is 50 ± 2 min. Further, the “maximal time of synaptic activity before failure” value with Drosophila larval NMJ [1] (H2O2 1 mM alone, controls 136 or 139 min) came out at 55 min.

As for `[N-]=[N+]=[N-].[Na+]` [NaN3, sodium azide, reference compound], in the series on Drosophila larval NMJ [2] (NaN3 75 µM alone, control 130 ± 3 min), the “average time of synaptic activity until failure” value came out at 44 ± 3 min. For the same compound, the “maximal time of synaptic activity before failure” value with Drosophila larval NMJ [2] (NaN3 75 µM alone, controls 136 or 139 min) is recorded as 52 min.

For the compound `CC(C)=C[C@H]1C[C@H](C)[C@H]2CC[C@H](C)c3c(O[C@@H]4OC[C@@H](O)[C@H](O)[C@H]4O)c(O)c(C)c1c32` [PsA, pseudopterosin A], the “increase of synaptic tolerance” value in the series with Drosophila larval NMJ [2] (PsA 500 nM during NaN3 75 µM exposure, vs NaN3 alone) is on record as 87%; with Drosophila larval NMJ [1] (PsA 1 µM during H2O2 1 mM exposure, vs H2O2 alone), 26%. For the same compound, the “average time until synaptic failure” value in the series on Drosophila larval NMJ [2] (PsA 500 nM with NaN3 75 µM) is on record as 83 ± 5 min; with Drosophila larval NMJ [2] (PsA 1 µM with NaN3 75 µM, failure = EJP amplitude < 1 mV) it was 112 ± 4 min. In addition, in the series on Drosophila larval NMJ [2] (PsA 1 µM during NaN3 75 µM exposure, vs NaN3 alone), the “increase of synaptic functional tolerance” value was found to be 152%. Also, the “maximal synaptic failure time” value with Drosophila larval NMJ [2] (PsA 1 µM with NaN3 75 µM) is recorded as 122 min; in the series with Drosophila larval NMJ [1] (PsA 1 µM with H2O2 1 mM) it was 70 min. Further, in the series on Drosophila larval NMJ [1] (PsA 1 µM with H2O2 1 mM, mean ± SE), the “average time until synaptic transmission failure” value stood at 63 ± 2 min. Further, the Kp in series [3] (male, NIH Swiss, brain / plasma, mouse brain, 50 mg/kg IV, read-out: Relative Exposure (AUCtissue/AUCplasma)) is 1.36; in series [3] (male, NIH Swiss, brain, liver, kidney / plasma, all tissues (brain, liver, kidney) vs plasma, 50 mg/kg IV, read-out: relative exposure (RE)), 1.27 to 1.36; in series [3] (male, NIH Swiss, brain, liver, kidney / plasma, brain, liver and kidney during the elimination phase, 50 mg/kg IV, read-out: tissue/plasma concentration ratios) it was more than 1; in series [3] (male, NIH Swiss, kidney / plasma, mouse kidney, 50 mg/kg IV, read-out: Relative Exposure (AUCtissue/AUCplasma)) it was 1.28; in series [3] (male, NIH Swiss, liver / plasma, mouse liver, 50 mg/kg IV, read-out: Relative Exposure (AUCtissue/AUCplasma)), 1.27. Also, the half-life in series [3] (male, NIH Swiss, brain, mouse brain, 50 mg/kg IV, read-out: Half-life (converted)) is 2.91 h; in series [3] (male, NIH Swiss, kidney, mouse kidney, 50 mg/kg IV, read-out: Half-life (converted)) it was 3.98 h; in series [3] (male, NIH Swiss, liver, mouse liver, 50 mg/kg IV, read-out: Half-life (converted)) it was 3.16 h; in series [3] (male, NIH Swiss, plasma, brain, liver, kidney, mouse plasma and tissues (brain, liver, kidney), 50 mg/kg IV, read-out: elimination half-life), 3 to 4 h; in series [3] (male, NIH Swiss, plasma, mouse plasma, 50 mg/kg IV bolus, two-compartment model, estimate ± standard error, read-out: Distribution Half-life (converted)), 0.05 ± 0.005 h; in series [3] (male, NIH Swiss, plasma, mouse plasma, 50 mg/kg IV bolus, two-compartment model, estimate ± standard error, read-out: Elimination Half-life (converted)), 3.21 ± 0.3 h. Further, the highest concentration (Cmax) in series [3] (setting [5]) was 10000 ng/g; in series [3] (setting [6]), 3000 ng/g; in series [3] (setting [7]), 10100 ng/g; in series [3] (setting [8]), 85.5 ± 7.64 µg/mL. Further, the Tmax is 0.5 h in series [3] (setting [5]), 1.5 h in series [3] (setting [6]) and 0.17 h in series [3] (setting [7]). In addition, the AUC in series [3] (setting [8]) is 14400 ± 950 ng·h/mL. Moreover, in series [3] (setting [8]), the clearance was 58 mL/min/kg. The Vd in series [3] (male, NIH Swiss, mouse plasma, 50 mg/kg IV bolus, estimate ± standard error, read-out: Vss) is 10.1 ± 1.35 L/kg. In addition, the “time of peak mean concentration” value in series [3] (mouse brain, 50 mg/kg IV) turned out to be 30 min; in series [3] (mouse kidney, 50 mg/kg IV) it was 90 min; in series [3] (mouse liver, 50 mg/kg IV) it was 10.2 min. Besides, the “AUC (AUClast)” value was 19.49 mg·h/kg in series [3] (mouse brain, 50 mg/kg IV); 18.37 mg·h/kg in series [3] (mouse kidney, 50 mg/kg IV); 18.20 mg·h/kg in series [3] (mouse liver, 50 mg/kg IV). For the same compound, in series [4], the lipophilicity result is listed as “high lipophilicity”. Also, the “tolerability of the dose” value in the series with mice was “well tolerated”.

Take `Cc1c(C)c2c(c(C)c1O)CCC(C)(C(=O)O)O2` (centres unmarked) [Trolox, 6-hydroxy-2,5,7,8-tetramethylchromane-2-carboxylic acid, reference compound]: in the series with Drosophila larval NMJ [2] (Trolox 5 µM during NaN3 75 µM exposure, vs NaN3 alone), the “increase of synaptic activity” value was found to be 25%. In addition, the “maximal time until synaptic breakdown” value with Drosophila larval NMJ [2] (Trolox 5 µM with NaN3 75 µM) was found to be 64 min; in the series on Drosophila larval NMJ [1] (Trolox 5 µM with H2O2 1 mM) it was 85 min. In addition, the “average time until synaptic failure” value in the series on Drosophila larval NMJ [2] (Trolox 5 µM with NaN3 75 µM) was found to be 55 ± 3 min. The “increase of synaptic function” value in the series on Drosophila larval NMJ [1] (Trolox 5 µM during H2O2 1 mM exposure, vs H2O2 alone) came to 60%. The “average time until synaptic transmission failure” value in the series with Drosophila larval NMJ [1] (Trolox 5 µM with H2O2 1 mM, mean ± SE) was 80 ± 2 min.

The values above are taken from publication PMC4820309, “Pseudopterosin A: Protection of Synaptic Function and Potential as a Neuromodulatory Agent” (Marine Drugs, 2016).
